From ChEMBL document CHEMBL4118132, “Novel 5-methyl-2-phenylphenanthridium derivatives as FtsZ-targeting antibacterial agents from structural simplification of natural product sanguinarine” (2018) come the findings set out here.

By MIC is commonly meant the lowest concentration found to suppress growth. Higher therefore signals a need for much substance. What is called MBC is the smallest concentration meeting the test's criterion for killing.

Holding throughout (format): functional
In assay [1] the test system is Staphylococcus aureus. In words: Bactericidal activity against penicillin-susceptible Staphylococcus aureus ATCC 25923 assessed as bacterial levels at 32 ug/ml after 12 hrs by time-kill assay (reference value: 6.13 to 8.01 log10CFU/ml).
In a further assay the test system is Bacillus pumilus. In words: Antibacterial activity against penicillin-susceptible Bacillus pumilus ATCC 63202 after 24 hrs by broth microdilution method. As to conditions: ATCC 63202, 24 h.
Assay [2] relates to Staphylococcus aureus. Description: Bactericidal activity against penicillin-susceptible Staphylococcus aureus ATCC 25923 after 24 hrs by flat colony counting method. Particulars: ATCC 25923, 24 h.
Assay [3] has as its system Streptococcus pyogenes. Description: Antibacterial activity against penicillin-resistant Streptococcus pyogenes after 24 hrs by broth microdilution method.
For assay [4], the system named is Streptococcus pyogenes. Description: Potency index, ratio of oxacillin sodium MIC to test compound MIC for penicillin-resistant Streptococcus pyogenes.
Assay [5] has as its system Staphylococcus aureus. Description: Antibacterial activity against methicillin-resistant Staphylococcus aureus ATCC 43300 after 24 hrs by broth microdilution method. As to conditions: ATCC 43300, 24 h.
Assay [6] has as its system Staphylococcus aureus. Description: Potency index, ratio of oxacillin sodium MIC to test compound MIC for penicillin-susceptible Staphylococcus aureus ATCC 25923.
In assay [7] the test system is Staphylococcus aureus. In words: Potency index, ratio of ciprofloxacin MIC to test compound MIC for penicillin-susceptible Staphylococcus aureus ATCC 25923.
The test system of assay [8] is Staphylococcus aureus. In words: Bactericidal activity against penicillin-susceptible Staphylococcus aureus ATCC 25923 assessed as bacterial levels at 8 ug/ml after 24 hrs by time-kill assay (reference value: 6.13 to 8.34 log10CFU/ml).
Assay [9] relates to Staphylococcus aureus. Description: Potency index, ratio of oxacillin sodium MIC to test compound MIC for methicillin-resistant Staphylococcus aureus ATCC 43300.
In assay [10] the test system is Staphylococcus aureus. In words: Potency index, ratio of ciprofloxacin MIC to test compound MIC for methicillin-resistant Staphylococcus aureus ATCC 43300.
Assay [11] has as its system Staphylococcus aureus. In words: Bactericidal activity against penicillin-susceptible Staphylococcus aureus ATCC 25923 assessed as bacterial levels at 8 ug/ml after 1 hr by time-kill assay (reference value: 6.13 to 6.14 log10CFU/ml).
Assay [12] concerns Streptococcus pyogenes. In words: Antibacterial activity against penicillin-susceptible Streptococcus pyogenes after 24 hrs by broth microdilution method. Background: Dilution methods test growth across graded concentrations, often in twofold steps.
Assay [13] deals with Staphylococcus aureus. Description: Bactericidal activity against penicillin-susceptible Staphylococcus aureus ATCC 25923 assessed as bacterial levels at 8 ug/ml after 12 hrs by time-kill assay (reference value: 6.13 to 8.01 log10CFU/ml).
The subject of assay [14] is Streptococcus pyogenes. Description: Potency index, ratio of ciprofloxacin MIC to test compound MIC for penicillin-resistant Streptococcus pyogenes.
Assay [15] relates to Staphylococcus aureus. In words: Antibacterial activity against penicillin-susceptible Staphylococcus aureus ATCC 25923 after 24 hrs by broth microdilution method. Particulars: ATCC 25923, 24 h.
Assay [16] relates to Streptococcus pyogenes. In words: Potency index, ratio of oxacillin sodium MIC to test compound MIC for penicillin-susceptible Streptococcus pyogenes.
The subject of assay [17] is Staphylococcus aureus. In words: Bactericidal activity against penicillin-susceptible Staphylococcus aureus ATCC 25923 assessed as bacterial levels at 16 ug/ml after 24 hrs by time-kill assay (reference value: 6.13 to 8.34 log10CFU/ml).
Assay [18] deals with Staphylococcus aureus. In words: Bactericidal activity against penicillin-susceptible Staphylococcus aureus ATCC 25923 assessed as bacterial levels at 16 ug/ml after 12 hrs by time-kill assay (reference value: 6.13 to 8.01 log10CFU/ml).

Turning to `Cc1cc(-c2ccc(C(F)(F)F)cc2)cc2c3ccccc3c[n+](C)c12.[Cl-]`, the Activity in the assay with Staphylococcus aureus [1] stood at 0 log10CFU/ml; in the assay with Staphylococcus aureus [8] it was 5.88 log10CFU/ml; with Staphylococcus aureus [11], 6.05 log10CFU/ml; in the assay on Staphylococcus aureus [13], 5.78 log10CFU/ml; in the assay on Staphylococcus aureus [17] it was 0 log10CFU/ml; in the assay on Staphylococcus aureus [18], 4 log10CFU/ml. The MIC in the assay on Bacillus pumilus turned out to be 0.06 µg/mL; against Streptococcus pyogenes [3], 2 µg/mL; against Staphylococcus aureus [5], 0.25 µg/mL; in the assay with Streptococcus pyogenes [12], 1 µg/mL; in the assay with Staphylococcus aureus [15], 0.06 µg/mL. Also, in the assay with Staphylococcus aureus [2], the minimum bactericidal concentration (MBC) came out at 16 µg/mL. The Ratio was 32 in the assay with Streptococcus pyogenes [4]; 67 in the assay on Staphylococcus aureus [6]; 133 with Staphylococcus aureus [7]; 256 with Staphylococcus aureus [9]; 64 in the assay with Staphylococcus aureus [10]; 32 with Streptococcus pyogenes [14]. Besides, the Ratio with Streptococcus pyogenes [16] was 1.
